The source of these data is patent US20260337177A1, “TEAD CORE INHIBITORS FOR CANCER THERAPEUTICS” (University of Florida Research Foundation, Incorporated, priority 2023, published 2026).

Series [1] relates to Huh7 cells. The experiment in a line: Apoptosis by Annexin V/PI flow cytometry, Huh7. It counts as cell-based, human. The conditions noted are these: 48 h. The method, then:
In order to gain deeper insights into the underlying anticancer mechanism of compound 22, experiments were performed to validate whether the induction of G1 phase cells by compound 22 was linked to apoptosis. To achieve this, the cells treated with compound 22 were subjected to PI and FITC-annexin V staining to detect apoptotic cells. […] The proportions of total apoptosis including the early stage apoptosis and the later stage of apoptosis were 66.8%, and 83.5%, respectively, at concentrations of 5 and 10 μM. This trend was similarly observed in the case of HepG2 cells. […] The impact of compound 22 on inducing cell apoptosis was less pronounced in HepG2 cells compared to Huh7 cells, aligning with the outcomes of the cell cycle analysis, providing further coherence to the observed effects of compound 22 on these cell lines.
Apoptosis was detected using an Annexin V-FITC apoptosis detection kit (Thermo Fisher Scientific) following the manufacturer’ instructions. Briefly, about 50000 cells were suspended in 500 μl of binding buffer. The cells were incubated with 5 μl FITC-conjugated Annexin V for 15 minutes and incubated with 5 μl propidium Iodide staining solution for 15 minutes in darkness at room temperature. Cell apoptosis was then analyzed by flow cytometry using a FACSCalibur flow cytometer (Becton Dickinson, San Jose, CA).
For orientation: Flow cytometry measures light scatter and fluorescence of single cells or particles in a stream.

Series [2] concerns Huh7 xenograft. The experiment in a line: Huh7 mouse xenograft model, antitumor efficacy. Type of series: in vivo, NSG mouse. The method, then:
Based on the favorable in vitro potency and low toxicity, the in vivo antitumor efficacy of compound 22 was further evaluated in the NSG mouse (NOD scid gamma mouse) xenograft model from human Huh7 cells. Sorafenib, the first-line treatment for primary hepatocellular carcinoma (HCC) patients, served as the control. Compound 22 was tested as a monotherapy and in combination with Sorafenib.
The animals were administered 10 mg/kg of compound 22 twice a week for four weeks via intraperitoneal (IP) injection.
The mice were administered 50 mg/kg of compound 22 every three day for 24 days via intraperitoneal (IP) injection. Sorafenib was administered orally at a dose of 100 mg/kg following the same schedule.
Tumors were implanted by subcutaneous injection of 5×10^6 Huh7 cells in 100 μL of PBS containing 10% matrix gel (Coming, NY, USA), into the right flank of the mouse. When the tumor volume reached about 85 mm^3, mice were randomized into the vehicle control group (n=5) and a treatment group (n=5). The vehicle group (n=5) received the vehicle only (50% phosal 50 PG, 45% miglyol 810 N and 5% polysorbate 80), while the treatment group (n=5) was given compound 22 (50 mg/kg in 50% phosal 50 PG, 45% miglyol 810 N and 5% polysorbate 80) via IP injection every three days. After 24 days, mice were euthanized. Sorafenib (100 mg/kg, every three day) was dissolved in 75% Ethanol and Cremophor EL (1:1) and administered directly into the animals' stomachs using a gastric probe. Tumor size and body weight were measured every 3 days, and tumor volume was estimated using the formula volume=½×length×width^2. Tumor growth inhibition value (TGI) was calculated as TGI (%) [1−Vt/Vc]×100, where Vc and Vt were […].

Series [3] has as its system CTGF. The experiment in a line: CTGF mRNA expression by RT-qPCR in Huh7 cells. It counts as cell-based, human. The conditions noted are these: dose-dependent. Here is the method:
(§1) Huh7 and HepG2 liver cancer cells were seeded at 1×10^6 cells/dish and allowed to adhere overnight. The cells were then treated with indicated doses of compounds in medium for 24 hours. The cells were then harvested, and total RNA was purified using the Aurum total RNA mini kit (Bio-Rad #732-6820) according to the manufacturer's instructions. Complementary DNA was synthesized from 500 ng total RNA template by iScript reverse transcription kit (Bio-Rad #1725037) according to the manufacturer's instructions. Real-time PCR reactions utilized 60 ng cDNA and PrimePCR primers from Bio-Rad (Unique Assay ID: human GAPDH-qHsaCEP0041396, human CTGF-qHsaCEP0024255, human CYR61-qHsaCEP0024230) designed for SYBR Green gene expression analysis (Bio-Rad #1726270). All reactions were carried out in triplicate using Quant Studio 3 PCR system (Applied Biosystems). Relative gene expression level was quantified via ΔΔCt method by using GAPDH as an endogenous reference.
For orientation: Quantitative PCR measures a nucleic acid by following its amplification.

Series [4] deals with CTGF. The experiment in a line: CTGF mRNA expression by RT-qPCR in HepG2 cells. To be noted: dose-dependent. Type of series: cell-based, human. Here is the method:
as §1

Series [5] relates to CYR61. The experiment in a line: CYR61 mRNA expression by RT-qPCR in HepG2 cells. To be noted: dose-dependent. Type of series: cell-based, human. Here is the method: as §1
Series [6] relates to HepG2 cells. The experiment in a line: MTT assay, HepG2 survival. Type of series: cell-based, human. The conditions noted are these: FIG. 7.
Series [7] relates to HepG2 cells. The experiment in a line: Apoptosis by calcein AM and ethidium homodimer-1 staining, HepG2. It counts as cell-based, human.

On to `O=C(CCl)c1c[nH]c2cc(Cl)c(OCc3cccc(C(F)(F)F)c3)cc12` [Compound 22, 2-chloro-1-(6-chloro-5-((3-(trifluoromethyl)benzyl)oxy)-1H-indol-3-yl)ethan-1-one], for which the results for the “Proportion of total apoptosis (early + late), Huh7” value in series [1] (5 μM) and in series [1] (10 μM) were 66.8% and 83.5%, respectively. Moreover, the figures for the “Tumor growth inhibition (TGI) rate” value in series [2] (10 mg/kg IP twice a week for four weeks) and in series [2] (50 mg/kg IP every three days for 24 days) were 78% and 75%, respectively. Further, the Body weight change entry in series [2] (xenograft mice, FIG. 6C) is listed as “No significant change”. The “CTGF mRNA expression, Huh7” value in series [3] is reported as “suppressed”; in series [3] (listed as compound 22), “significantly inhibited”. For the same compound, the “CTGF mRNA expression, HepG2” value in series [4] is “significantly inhibited”. Moreover, in series [5], the “CYR61 mRNA expression, HepG2” value is recorded as “significantly inhibited”. For the same compound, the “HepG2 survival, MTT assay” value in series [6] is “inhibits”. In addition, the HepG2 cell apoptosis result in series [7] is given as “promotes HepG2 cell apoptosis”.
